Measured values: article PMC11396129, “Oxindole–benzothiazole hybrids as CDK2 inhibitors and anticancer agents: design, synthesis and biological evaluation” (BMC Chemistry, 2024)

Tests used:
SR = experiment: NCI 60 panel growth inhibition (SRB), leukemia; type: cell-based, human; details: 10 μM
Method: (§1) Screening of cytotoxic activity against a panel of sixty human tumor cell lines The selected compounds by NCI were evaluated for their anticancer activity in a two- stage process. […] Then, the output from the single dose screen is reported as a mean graph. […] Assay protocol. […] For a typical screening experiment, cells are inoculated into 96 well microtiter plates in 100 µL at plating densities ranging from 5000 to 40,000 cells/well depending on the doubling time of individual cell lines. […] After 24 h, two plates of each cell line are fixed in situ with TCA, to represent a measurement of the cell population for each cell line at the time of drug addition (Tz). The experimental drugs are solubilized in dimethyl sulfoxide at 400-fold the desired final maximum test concentration and stored frozen prior to use. At the time of drug addition, an aliquot of frozen concentrate is thawed and diluted to twice the desired final maximum test concentration with complete medium containing 50 µg/mL gentamicin. Additional four, 10-fold or ½ log serial dilutions are made to provide a total of five drug concentrations plus control. […] For adherent cells, the assay is terminated by the addition of cold TCA. […] The supernatant is discarded, and the plates are washed five times with tap water and air dried. […] Using the seven absorbance measurements [time zero, (Tz), control growth, (C), and test growth in the presence of drug at the five concentration levels (Ti)], the percentage growth is calculated at each of the drug concentrations levels. Percentage growth inhibition is calculated as: [(Ti Tz)/(C–Tz)] x 100 for concentrations for which Ti>/=Tz and [(Ti-Tz)/Tz] x 100 for concentrations for which Ti < Tz. Three dose response parameters are calculated for each experimental agent. […] The drug concentration resulting in total growth inhibition (TGI) is calculated from Ti = Tz. […] Values are calculated for each of these three parameters if the level of activity is reached; however, if the effect is not reached or is exceeded, the value for that parameter is expressed as greater or less than the maximum or minimum concentration tested.

K-562 = experiment: NCI 60 panel growth inhibition (SRB), leukemia; type: cell-based, human; details: K-562, 10 μM
Method: as §1

HL-60(TB) = experiment: NCI 60 panel growth inhibition (SRB), leukemia; type: cell-based, human; details: HL-60(TB), 10 μM
Method: as §1

MOLT-4 = experiment: NCI 60 panel growth inhibition (SRB), leukemia; type: cell-based, human; details: MOLT-4, 10 μM
Method: as §1

RPMI-8226 = experiment: NCI 60 panel growth inhibition (SRB), leukemia; type: cell-based, human; details: RPMI-8226, 10 μM
Method: as §1

CCRF-CEM = experiment: NCI 60 panel growth inhibition (SRB), leukemia; type: cell-based, human; details: 10 μM
Method: as §1

LOX IMVI = experiment: NCI 60 panel growth inhibition (SRB), melanoma; type: cell-based, human; details: 10 μM
Method: as §1

UACC-62 = experiment: NCI 60 panel growth inhibition (SRB), melanoma; type: cell-based, human; details: UACC-62, 10 μM
Method: as §1

SK-MEL-5 = experiment: NCI 60 panel growth inhibition (SRB), melanoma; type: cell-based, human; details: SK-MEL-5, 10 μM
Method: as §1

M14 = experiment: NCI 60 panel growth inhibition (SRB), melanoma; type: cell-based, human; details: M14, 10 μM
Method: as §1

MALME-3M = experiment: NCI 60 panel growth inhibition (SRB), melanoma; type: cell-based, human; details: 10 μM
Method: as §1

SK-MEL-28 = experiment: NCI 60 panel growth inhibition (SRB), melanoma; type: cell-based, human; details: SK-MEL-28, 10 μM
Method: as §1

UACC-257 = experiment: NCI 60 panel growth inhibition (SRB), melanoma; type: cell-based, human; details: UACC-257, 10 μM
Method: as §1

HOP-62 = experiment: NCI 60 panel growth inhibition (SRB), non-small cell lung cancer; type: cell-based, human; details: HOP-62, 10 μM
Method: as §1

NCI-H522 = experiment: as above; type: cell-based, human; details: NCI-H522, 10 μM
Method: as §1

NCI-H23 = experiment: as above; type: cell-based, human; details: NCI-H23, 10 μM
Method: as §1

NCI-H460 = experiment: as above; type: cell-based, human; details: NCI-H460, 10 μM
Method: as §1

EKVX = experiment: as above; type: cell-based, human; details: 10 μM
Method: as §1

A549/ATCC = experiment: as above; type: cell-based, human; details: 10 μM
Method: as §1

NCI-H322M = experiment: as above; type: cell-based, human; details: 10 μM
Method: as §1

NCI-H226 = experiment: as above; type: cell-based, human; details: NCI-H226, 10 μM
Method: as §1

SNB-75 = experiment: NCI 60 panel growth inhibition (SRB), CNS cancer; type: cell-based, human; details: SNB-75, 10 μM
Method: as §1

SNB-19 = experiment: NCI 60 panel growth inhibition (SRB), CNS cancer; type: cell-based, human; details: SNB-19, 10 μM
Method: as §1

SF-268 = experiment: NCI 60 panel growth inhibition (SRB), CNS cancer; type: cell-based, human; details: SF-268, 10 μM
Method: as §1

SF-539 = experiment: NCI 60 panel growth inhibition (SRB), CNS cancer; type: cell-based, human; details: SF-539, 10 μM
Method: as §1

SF-295 = experiment: NCI 60 panel growth inhibition (SRB), CNS cancer; type: cell-based, human; details: SF-295, 10 μM
Method: as §1

U251 = experiment: NCI 60 panel growth inhibition (SRB), CNS cancer; type: cell-based, human; details: U251, 10 μM
Method: as §1

HCT-116 = experiment: NCI 60 panel growth inhibition (SRB), colon cancer; type: cell-based, human; details: HCT-116, 10 μM
Method: as §1

KM12 = experiment: NCI 60 panel growth inhibition (SRB), colon cancer; type: cell-based, human; details: KM12, 10 μM
Method: as §1

SW-620 = experiment: NCI 60 panel growth inhibition (SRB), colon cancer; type: cell-based, human; details: SW-620, 10 μM
Method: as §1

HCC-2998 = experiment: NCI 60 panel growth inhibition (SRB), colon cancer; type: cell-based, human; details: HCC-2998, 10 μM
Method: as §1

HCT-15 = experiment: NCI 60 panel growth inhibition (SRB), colon cancer; type: cell-based, human; details: HCT-15, 10 μM
Method: as §1

COLO 205 = experiment: NCI 60 panel growth inhibition (SRB), colon cancer; type: cell-based, human; details: COLO 205, 10 μM
Method: as §1

HOP-92 = experiment: NCI 60 panel growth inhibition (SRB), non-small cell lung cancer; type: cell-based, human; details: HOP-92, 10 μM
Method: as §1

Row | Compound | GI% (K-562) | GI% (HL-60(TB)) | GI% (MOLT-4) | GI% (RPMI-8226) | GI% (CCRF-CEM) | GI% (LOX IMVI) | GI% (UACC-62) [%] | GI% (SK-MEL-5) [%] | GI% (M14) | GI% (SK-MEL-28) | GI% (UACC-257) | GI% (HOP-62) | GI% (NCI-H522) | GI% (NCI-H23) [%] | GI% (NCI-H460) | GI% (EKVX) | GI% (A549/ATCC) | GI% (NCI-H322M) | GI% (NCI-H226) | GI% (SNB-75) | also measured
1 | COc1cccc(-c2nc3ccccc3s2)c1OCC(=O)NN=C1C(=O)Nc2ccc(Br)cc21 [Compound 9l, 2-(2-(Benzo[d]thiazol-2-yl)-6-methoxyphenoxy)-N′-(5-bromo-2-oxoindolin-3-ylidene)acetohydrazide] | 18.70% | – (GI% < 5%) | 36.40% | 25.41% | 15.16% | 19.74% | 35.62 | 19.70 | – (GI% < 5%) | – (GI% < 5%) | – (GI% < 5%) | 13.44% | 25.73% | 17.03 | 5.26% | 66.66% | 17.13% | – (GI% < 5%) | 12.06% | 10.42% | GI% (SR): 16.68%; GI% (MALME-3M): 6.30%; GI% (SNB-19): – (GI% < 5%); GI% (SF-268): 8.60%; GI% (SF-539): 9.75%; GI% (SF-295): 33.14%; GI% (U251): – (GI% < 5%); GI% (HCT-116): 7.62%; GI% (KM12): 12.55%; GI% (SW-620): – (GI% < 5%); GI% (HCC-2998): – (GI% < 5%); GI% (HCT-15): 21.00%; GI% (COLO 205): – (GI% < 5%); melting point: 266 to 268 °C
2 | COc1cccc(-c2nc3ccccc3s2)c1OCC(=O)NN=C1C(=O)Nc2ccc(Cl)cc21 [Compound 9k, 2-(2-(Benzo[d]thiazol-2-yl)-6-methoxyphenoxy)-N′-(5-chloro-2-oxoindolin-3-ylidene)acetohydrazide] | 29.20% | 6.09% | 43.70% | 29.96% | 24.47% | 13.16% | 32.61 | 23.55 | – (GI% < 5%) | – (GI% < 5%) | – (GI% < 5%) | 6.81% | 28.39% | 17.71 | 8.94% | 66.74% | 26.29% | – (GI% < 5%) | 18.20% | – (GI% < 5%) | GI% (SR): 17.83%; GI% (SNB-19): – (GI% < 5%); GI% (SF-268): – (GI% < 5%); GI% (SF-539): 30.36%; GI% (SF-295): 38.31%; GI% (U251): – (GI% < 5%); GI% (HCT-116): 13.42%; GI% (KM12): 22.47%; GI% (SW-620): – (GI% < 5%); GI% (HCC-2998): – (GI% < 5%); GI% (HCT-15): 31.91%; GI% (COLO 205): – (GI% < 5%); melting point: 263 to 265 °C
3 | COc1ccc(-c2nc3ccccc3s2)cc1OCC(=O)NN=C1C(=O)Nc2ccc(C)cc21 [Compound 9n, 2-(5-(Benzo[d]thiazol-2-yl)-2-methoxyphenoxy)-N′-(5-methyl-2-oxoindolin-3-ylidene)acetohydrazide] | 6.70% | – (GI% < 5%) | 13.07% | 14.26% | 16.11% | – (GI% < 5%) | 13.88 | 7.31 | – (GI% < 5%) | 6.91% | – (GI% < 5%) | – (GI% < 5%) | – (GI% < 5%) | 12.32 | – (GI% < 5%) | – (GI% < 5%) | – (GI% < 5%) | 10.32% | – (GI% < 5%) | – (GI% < 5%) | GI% (MALME-3M): 18.46%; GI% (HOP-92): – (GI% < 5%); GI% (SNB-19): – (GI% < 5%); GI% (SF-268): 5.27%; GI% (SF-539): 11.49%; GI% (SF-295): – (GI% < 5%); GI% (U251): – (GI% < 5%); GI% (HCT-116): – (GI% < 5%); GI% (KM12): – (GI% < 5%); GI% (SW-620): 6.33%; GI% (HCC-2998): – (GI% < 5%); GI% (HCT-15): 9.62%; GI% (COLO 205): – (GI% < 5%); melting point: 224 to 226 °C
4 | O=C(COc1ccccc1-c1nc2ccccc2s1)NN=C1C(=O)Nc2ccc(Cl)cc21 [Compound 9e, 2-(2-(Benzo[d]thiazol-2-yl)phenoxy)-N′-(5-chloro-2-oxoindolin-3-ylidene)acetohydrazide] | – (GI% < 5%) | – (GI% < 5%) | – (GI% < 5%) | – (GI% < 5%) | –^a (GI% < 5%) | 8.86% | 10.86 | 5.89 | – (GI% < 5%) | – (GI% < 5%) | – (GI% < 5%) | – (GI% < 5%) | 11.15% | 7.05 | – (GI% < 5%) | 53.99% | – (GI% < 5%) | – (GI% < 5%) | 11.52% | – (GI% < 5%) | GI% (SR): 6.46%; GI% (MALME-3M): – (GI% < 5%); GI% (SNB-19): – (GI% < 5%); GI% (SF-268): – (GI% < 5%); GI% (SF-539): – (GI% < 5%); GI% (SF-295): – (GI% < 5%); GI% (U251): – (GI% < 5%); GI% (HCT-116): – (GI% < 5%); GI% (KM12): – (GI% < 5%); GI% (SW-620): – (GI% < 5%); GI% (HCC-2998): – (GI% < 5%); GI% (HCT-15): – (GI% < 5%); GI% (COLO 205): – (GI% < 5%); melting point: 265 to 267 °C
